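Briefly, cells in 96-well plates were exposed to five compound concentrations for 48 h, and endpoints were estimated by linear interpolation. GI50 is the concentration that inhibits growth by half.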 Activity calls are given as the source filed them. No stated cut-off is given here; in the data, active = GI50 up to about 1.1 µM and inactive = higher.
Assays:
Assay in all cases: inhibition of tumour cell growth, NCI panel, 48 h
A549 = tested on: A549
CCRF-CEM = tested on: CCRF-CEM
COLO 205 = tested on: COLO 205
EKVX = tested on: EKVX
K562 = tested on: K562
M14 = tested on: M14
MDA-MB-435 = tested on: MDA-MB-435
NCI-H522 = tested on: NCI-H522
OVCAR-4 = tested on: OVCAR-4
OVCAR-5 = tested on: OVCAR-5
OVCAR-8 = tested on: OVCAR-8
PC-3 = tested on: PC-3
RPMI-8226 = tested on: RPMI-8226
SF-295 = tested on: SF-295
SK-MEL-5 = tested on: SK-MEL-5
SK-OV-3 = tested on: SK-OV-3
SNB-19 = tested on: SNB-19
SW-620 = tested on: SW-620
TK-10 = tested on: TK-10
IGROV-1 = tested on: IGROV-1

Measured: GI50

CC1(F)C=CC(=O)C=C1
inactive: A549 > 100 µM | CCRF-CEM 47.5 µM | COLO 205 > 100 µM | EKVX > 100 µM | K562 44 µM | M14 > 100 µM | MDA-MB-435 35.7 µM | NCI-H522 37.4 µM | OVCAR-4 79.3 µM | OVCAR-5 58.7 µM | OVCAR-8 19.6 µM | PC-3 69.7 µM | RPMI-8226 29.4 µM | SF-295 > 100 µM | SK-MEL-5 > 100 µM | SK-OV-3 > 100 µM | SNB-19 > 100 µM | SW-620 22.2 µM | TK-10 38.9 µM

O=C1Nc2ccccc2[C@]12C[C@H]2c1ccccn1
inactive: A549 > 100 µM | CCRF-CEM > 100 µM | COLO 205 > 100 µM | EKVX > 100 µM | IGROV-1 > 100 µM | K562 > 100 µM | M14 > 100 µM | MDA-MB-435 > 100 µM | NCI-H522 > 100 µM | OVCAR-4 > 100 µM | OVCAR-5 > 100 µM | PC-3 > 100 µM | RPMI-8226 > 100 µM | SF-295 > 100 µM | SK-MEL-5 > 100 µM | SK-OV-3 > 100 µM | SNB-19 > 100 µM | SW-620 > 100 µM | TK-10 > 100 µM

CC1=NN(c2cccc(Cl)c2)C2(C1=Cc1ccc(O)cc1)C(Cl)C(=O)N2c1nc2ccccc2s1 (stereo not drawn)
inactive: CCRF-CEM 28.6 µM | EKVX 29.4 µM | IGROV-1 14.1 µM | K562 18.6 µM | M14 24.7 µM | MDA-MB-435 25.1 µM | NCI-H522 22.2 µM | OVCAR-4 22.6 µM | OVCAR-5 29.4 µM | OVCAR-8 27 µM | PC-3 19.4 µM | RPMI-8226 17.5 µM | SF-295 21.5 µM | SK-MEL-5 16.6 µM | SK-OV-3 22.8 µM | SW-620 15.4 µM | TK-10 37.7 µM

N#CC(C#N)=C/C=C/c1c(Cl)cccc1Cl
inactive: A549 2.75 µM | CCRF-CEM 1.34 µM | COLO 205 1.73 µM | EKVX 3.33 µM | IGROV-1 2.16 µM | K562 2.55 µM | M14 1.69 µM | MDA-MB-435 2.14 µM | NCI-H522 1.65 µM | OVCAR-4 1.72 µM | OVCAR-8 1.53 µM | PC-3 1.81 µM | RPMI-8226 1.78 µM | SF-295 2.07 µM | SK-MEL-5 1.85 µM | SK-OV-3 2.56 µM | SNB-19 3.78 µM | SW-620 1.92 µM | TK-10 2.7 µM

O=c1[nH]c(-n2[nH]c3c(c2=O)CCCC3)nc(O)c1-c1ccccc1
inactive: CCRF-CEM > 100 µM | COLO 205 > 100 µM | EKVX > 100 µM | IGROV-1 > 100 µM | K562 > 100 µM | M14 > 100 µM | MDA-MB-435 > 100 µM | NCI-H522 > 100 µM | OVCAR-4 > 100 µM | OVCAR-5 > 100 µM | OVCAR-8 > 100 µM | PC-3 > 100 µM | RPMI-8226 > 100 µM | SF-295 > 100 µM | SK-MEL-5 > 100 µM | SK-OV-3 > 100 µM | SNB-19 > 100 µM | SW-620 > 100 µM | TK-10 > 100 µM

Cn1c2ccccc2c2cc(-c3ccccc3)c3c(c21)C(=O)C=CC3=O
inactive: A549 60.1 µM | CCRF-CEM 1.59 µM | COLO 205 17.5 µM | EKVX 39.7 µM | IGROV-1 22.8 µM | K562 5.31 µM | M14 21.1 µM | MDA-MB-435 15.1 µM | NCI-H522 17.5 µM | OVCAR-4 18.8 µM | OVCAR-5 19 µM | OVCAR-8 30.3 µM | PC-3 18.4 µM | RPMI-8226 2.45 µM | SF-295 24 µM | SK-MEL-5 28.3 µM | SK-OV-3 > 88.1 µM | SNB-19 36.6 µM | SW-620 9.48 µM | TK-10 17.1 µM

c1c[nH]c(-c2cccc3nsnc23)c1
inactive: A549 72.3 µM | CCRF-CEM 93.1 µM | COLO 205 13.5 µM | EKVX 33 µM | IGROV-1 22.8 µM | K562 > 100 µM | M14 > 100 µM | MDA-MB-435 > 100 µM | NCI-H522 > 100 µM | OVCAR-4 38.8 µM | OVCAR-5 31.8 µM | OVCAR-8 78 µM | PC-3 95.9 µM | RPMI-8226 57.7 µM | SF-295 > 100 µM | SK-MEL-5 > 100 µM | SK-OV-3 > 100 µM | SNB-19 > 100 µM | SW-620 > 100 µM | TK-10 19.3 µM

COC(=O)CCC(C)[C@H]1CCC2C3CC[C@@H]4CC5(CC[C@]4(C)C3C[C@H](OC(C)=O)[C@@]21C)OOC1(CCCCC1)OO5 (stereo partly drawn)
inactive: A549 9.77 µM | CCRF-CEM 5.3 µM | COLO 205 6.17 µM | EKVX 1.9 µM | IGROV-1 2.12 µM | K562 6.01 µM | M14 3.33 µM | MDA-MB-435 7.35 µM | NCI-H522 6.01 µM | OVCAR-4 4.06 µM | OVCAR-5 17.3 µM | OVCAR-8 13.7 µM | PC-3 6.55 µM | RPMI-8226 1.94 µM | SF-295 9.4 µM | SK-MEL-5 5.78 µM | SK-OV-3 > 100 µM | SNB-19 > 100 µM | TK-10 > 100 µM

CSC1=C(C#N)C(=O)N(c2ccc(Cl)cc2)C(=O)C1C#N (stereo not drawn)
inactive: A549 > 100 µM | CCRF-CEM 44.9 µM | COLO 205 > 100 µM | EKVX > 100 µM | IGROV-1 > 100 µM | K562 78.9 µM | M14 96.4 µM | MDA-MB-435 > 100 µM | NCI-H522 > 100 µM | OVCAR-4 > 100 µM | OVCAR-5 > 100 µM | PC-3 > 100 µM | RPMI-8226 33.8 µM | SF-295 87.1 µM | SK-MEL-5 > 100 µM | SK-OV-3 > 100 µM | SNB-19 > 100 µM | SW-620 > 100 µM | TK-10 > 100 µM

O=C(O)/C=C/c1ccc2c(c1)CC1(Cc3ccccc3C1)C2
inactive: A549 34.8 µM | CCRF-CEM 91.2 µM | COLO 205 27.8 µM | EKVX > 100 µM | IGROV-1 56.4 µM | K562 47.2 µM | M14 48.1 µM | MDA-MB-435 80.5 µM | NCI-H522 54.5 µM | OVCAR-4 39 µM | OVCAR-5 > 100 µM | OVCAR-8 66.1 µM | PC-3 53.6 µM | RPMI-8226 96.8 µM | SF-295 36.1 µM | SK-MEL-5 43.5 µM | SK-OV-3 > 100 µM | TK-10 > 100 µM

C=C(C)C(O)CCC1(C)C=Cc2c(c(C)cc3c2[nH]c2ccccc23)O1 (stereo not drawn)
inactive: A549 7.4 µM | CCRF-CEM 7.74 µM | COLO 205 4.65 µM | IGROV-1 17.1 µM | K562 6.25 µM | M14 5.05 µM | MDA-MB-435 8.41 µM | NCI-H522 4.91 µM | OVCAR-4 16.5 µM | OVCAR-5 4.2 µM | OVCAR-8 9.08 µM | PC-3 6.55 µM | RPMI-8226 9.77 µM | SF-295 4.34 µM | SK-MEL-5 7.62 µM | SK-OV-3 23.3 µM | SNB-19 15.2 µM | SW-620 4.48 µM | TK-10 > 25 µM

From ChEMBL document CHEMBL1201862, “PubChem BioAssay data set” (2004)
